According to patent publication US8871756B2 (Hoffmann-La Roche Inc., priority 2011, dated 2014):
Structures can show the parent of a compound that is named as a salt.

System: RSV Long strain
Assay: Viral cytopathic effect (CPE) assay, anti-RSV activity
Assay type: cell-based, Respiratory Syncytial Virus
Conditions: human respiratory syncytial virus, 144 h, RSV Long strain (ATCC); cell viability after 6 days, Cell Counting kit-8
In short: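 Cells (6×10^3/well, DMEM with 10% FBS) were infected next day with RSV Long strain, at a dose giving approximately 80–90% CPE, alongside serial half-log compound dilutions. Viability was read after 6 days by CCK-8 absorbance at 450 nm (reference 630 nm), and EC50 was derived from it.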

Row | EC50 | Compound
1 | 0.092 µM | CO/N=C1\CCN(c2cc(NCC3(N)COC3)c3cc(C)ccc3n2)Cc2ccccc21 [Example 112-2, N-[(3-Aminooxetan-3-yl)methyl]-2-[(5E)-5-(methoxyimino)-1,3,4,5-tetrahydro-2H-2-benzazepin-2-yl]-6-methylquinolin-4-amine]
2 | 0.733 µM | Cc1ccc2nc(N3CCC(F)(F)c4ccccc4C3)cc(NCCS(=O)(=O)CCN)c2c1 [Example 113, N-{2-[(2-Aminoethyl)sulfonyl]ethyl}-2-(5,5-difluoro-1,3,4,5-tetrahydro-2H-2-benzazepin-2-yl)-6-methylquinolin-4-amine]
3 | 0.007 µM | Cc1ccc2nc(N3CCC(=O)c4ccccc4C3)nc(NCC3(N)COC3)c2c1 [Example 114-1, 2-(4-{[(3-Aminooxetan-3-yl)methyl]amino}-6-methylquinazolin-2-yl)-1,2,3,4-tetrahydro-5H-2-benzazepin-5-one]
4 | 0.975 µM | Cc1ccc2nc(N3CCC(F)(F)c4ccccc4C3)nc(NCC3(CN)CSC3)c2c1 [Example 114-2, N-{[3-(Aminomethyl)thietan-3-yl]methyl}-2-(5,5-difluoro-1,3,4,5-tetrahydro-2H-2-benzazepin-2-yl)-6-methylquinazolin-4-amine]
5 | 0.004 µM | Cc1ccc2nc(N3CCC(F)(F)c4ccccc4C3)nc(NCC3(CN)COC3)c2c1 [Example 114-3, N-{[3-(Aminomethyl)oxetan-3-yl]methyl}-2-(5,5-difluoro-1,3,4,5-tetrahydro-2H-2-benzazepin-2-yl)-6-methylquinazolin-4-amine]
6 | 0.186 µM | Cc1ccc2nc(N3CCC(F)(F)c4ccccc4C3)nc(NCC(CN)(CO)CO)c2c1 [Example 114-4, 2-(Aminomethyl)-2-({[2-(5,5-difluoro-1,3,4,5-tetrahydro-2H-2-benzazepin-2-yl)-6-methylquinazolin-4-yl]amino}methyl)propane-1,3-diol]
7 | 0.01 µM | Cc1ccc2nc(N3CCC(C)(O)c4ccccc4C3)nc(NCC3(N)COC3)c2c1 (centres unmarked) [Example 115, 2-(4-{[(3-Aminooxetan-3-yl)methyl]amino}-6-methylquinazolin-2-yl)-5-methyl-2,3,4,5-tetrahydro-1H-2-benzazepin-5-ol]
8 | 0.005 µM | Cc1ccc2nc(N3CCC(F)(F)c4ccccc4C3)nc(NCC3(N)COC3)c2c1 [Example 116-1, N-[(3-Aminooxetan-3-yl)methyl]-2-(5,5-difluoro-1,3,4,5-tetrahydro-2H-2-benzazepin-2-yl)-6-methylquinazolin-4-amine]
9 | 0.309 µM | Cc1ccc2nc(N3CCC(F)(F)c4ccccc4C3)nc(NCC3(N)CS(=O)(=O)C3)c2c1 [Example 116-2, N-[(3-Amino-1,1-dioxidothietan-3-yl)methyl]-2-(5,5-difluoro-1,3,4,5-tetrahydro-2H-2-benzazepin-2-yl)-6-methylquinazolin-4-amine]
10 | 5.97 µM | Cc1ccc2nc(N3CCC(F)(F)c4ccccc4C3)nc(NCC(F)(F)CN)c2c1 [Example 117, N-[2-(5,5-Difluoro-1,3,4,5-tetrahydro-2H-2-benzazepin-2-yl)-6-methylquinazolin-4-yl]-2,2-difluoropropane-1,3-diamine]
11 | 1.98 µM | NCCNc1cc(N2CCCc3cc(Br)ccc3C2)nc2ccc(Cl)cc12 [Example 118-1, N-[2-(7-Bromo-1,3,4,5-tetrahydro-2H-2-benzazepin-2-yl)-6-chloroquinolin-4-yl]ethane-1,2-diamine]
12 | 0.048 µM | NCCNc1cc(N2CCCc3ccc(O)cc3C2)nc2ccccc12 [Example 118-2, 2-{4-[(2-Aminoethyl)amino]quinolin-2-yl}-2,3,4,5-tetrahydro-1H-2-benzazepin-8-ol]
13 | 0.063 µM | Cc1ccc2nc(N3CCCc4ccccc4C3)cc(NCCN)c2c1 [Example 118-3, N-[6-Methyl-2-(1,3,4,5-tetrahydro-2H-2-benzazepin-2-yl)quinolin-4-yl]ethane-1,2 diamine]
14 | 0.104 µM | Cc1ccc2nc(N3CCCc4ccc(F)cc4C3)cc(NCCN)c2c1 [Example 118-4, N-[2-(8-Fluoro-1,3,4,5-tetrahydro-2H-2-benzazepin-2-yl)-6-methylquinolin-4-yl]ethane-1,2-diamine]
15 | 0.178 µM | NCCNc1cc(N2CCCc3ccccc3C2)nc2ccc(Cl)cc12 [Example 118-5, N-[6-Chloro-2-(1,3,4,5-tetrahydro-2H-2-benzazepin-2-yl)quinolin-4-yl]ethane-1,2-diamine]
16 | 0.173 µM | NCCNc1cc(N2CCCc3cccc(F)c3C2)nc2ccc(Cl)cc12 [Example 118-6, N-[6-Chloro-2-(9-fluoro-1,3,4,5-tetrahydro-2H-2-benzazepin-2-yl)quinolin-4-yl]ethane-1,2-diamine]
17 | 0.166 µM | NCCNc1cc(N2CCCc3ccc(F)cc3C2)nc2ccccc12 [Example 118-7, N-[2-(8-Fluoro-1,3,4,5-tetrahydro-2H-2-benzazepin-2-yl)quinolin-4-yl]ethane-1,2-diamine]
18 | 0.223 µM | NCC(O)CNc1cc(N2CCCc3ccccc3C2)nc2ccccc12 (centres unmarked) [Example 118-8, 1-Amino-3-{[2-(1,3,4,5-tetrahydro-2H-2-benzazepin-2-yl)quinolin-4-yl]amino}propan-2-ol trifluoroacetate (salt)]
19 | 0.202 µM | NCCNc1cc(N2CCCc3ccccc3C2)nc2ccccc12 [Example 118-9, N-[2-(1,3,4,5-Tetrahydro-2H-2-benzazepin-2-yl)quinolin-4-yl]ethane-1,2-diamine]

Row | EC50 | Compound
20 | 0.289 µM | NCCNc1cc(N2CCCc3ccccc3C2)nc2ccc(Br)cc12 [Example 118-10, N-[6-Bromo-2-(1,3,4,5-tetrahydro-2H-2-benzazepin-2-yl)quinolin-4-yl]ethane-1,2-diamine]
21 | 0.323 µM | COc1ccc2nc(N3CCCc4ccccc4C3)cc(NCCN)c2c1 [Example 118-11, N-[6-Methoxy-2-(1,3,4,5-tetrahydro-2H-2-benzazepin-2-yl)quinolin-4-yl]ethane-1,2-diamine]
22 | 0.448 µM | NCCNc1cc(N2CCCc3c(Cl)cccc3C2)nc2ccccc12 [Example 118-12, N-[2-(6-Chloro-1,3,4,5-tetrahydro-2H-2-benzazepin-2-yl)quinolin-4-yl]ethane-1,2-diamine]
23 | 0.463 µM | Cc1ccc2nc(N3CCCc4cc(F)ccc4C3)cc(NCCN)c2c1 [Example 118-13, N-[2-(7-Fluoro-1,3,4,5-tetrahydro-2H-2-benzazepin-2-yl)-6-methylquinolin-4-yl]ethane-1,2-diamine]
24 | 0.616 µM | CNCCNc1cc(N2CCCc3ccccc3C2)nc2ccccc12 [Example 118-14, N-Methyl-N′-[2-(1,3,4,5-tetrahydro-2H-2-benzazepin-2-yl)quinolin-4-yl]ethane-1,2-diamine]
25 | 0.626 µM | COc1ccc2c(c1)CCCN(c1cc(NCCN)c3ccccc3n1)C2 [Example 118-15, N-[2-(7-Methoxy-1,3,4,5-tetrahydro-2H-2-benzazepin-2-yl)quinolin-4-yl]ethane-1,2-diamine]
26 | 0.695 µM | NCCNc1cc(N2CCCc3cc(F)ccc3C2)nc2ccccc12 [Example 118-16, N-[2-(7-Fluoro-1,3,4,5-tetrahydro-2H-2-benzazepin-2-yl)quinolin-4-yl]ethane-1,2-diamine]
27 | 0.806 µM | COc1ccc2c(c1)CN(c1cc(NCCN)c3ccccc3n1)CCC2 [Example 118-17, N-[2-(8-Methoxy-1,3,4,5-tetrahydro-2H-2-benzazepin-2-yl)quinolin-4-yl]ethane-1,2-diamine]
28 | 0.973 µM | NCCNc1cc(N2CCCc3ccccc3C2)nc2ccc(OC(F)F)cc12 [Example 118-18, N-[6-(Difluoromethoxy)-2-(1,3,4,5-tetrahydro-2H-2-benzazepin-2-yl)quinolin-4-yl]ethane-1,2-diamine]
29 | 1.24 µM | NCCNc1cc(N2CCCc3ccccc3C2)nc2ccc(C(F)(F)F)cc12 [Example 118-19, N-[2-(1,3,4,5-Tetrahydro-2H-2-benzazepin-2-yl)-6-(trifluoromethyl)quinolin-4-yl]ethane-1,2-diamine]
30 | 1.13 µM | NCCNc1cc(N2CCCc3ccccc3C2)nc2c(Cl)cccc12 [Example 118-20, N-[8-Chloro-2-(1,3,4,5-tetrahydro-2H-2-benzazepin-2-yl)quinolin-4-yl]ethane-1,2-diamine]
31 | 1.38 µM | NCCNc1cc(N2CCCc3ccccc3C2)nc2ccc(F)cc12 [Example 118-21, N-[6-Fluoro-2-(1,3,4,5-tetrahydro-2H-2-benzazepin-2-yl)quinolin-4-yl]ethane-1,2-diamine]
32 | 2.23 µM | CN(C)CCNc1cc(N2CCCc3ccccc3C2)nc2ccccc12 [Example 118-22, N,N-Dimethyl-N′-[2-(1,3,4,5-tetrahydro-2H-2-benzazepin-2-yl)quinolin-4-yl]ethane-1,2-diamine]
33 | 2.64 µM | NCCNc1cc(N2CCCc3ccccc3C2)nc2ccc(OC(F)(F)F)cc12 [Example 118-23, N-[2-(1,3,4,5-Tetrahydro-2H-2-benzazepin-2-yl)-6-(trifluoromethoxy)quinolin-4-yl]ethane-1,2-diamine]
34 | 6.45 µM | CS(=O)(=O)c1ccc2nc(N3CCCc4ccccc4C3)cc(NCCN)c2c1 [Example 118-24, N-[6-(Methylsulfonyl)-2-(1,3,4,5-tetrahydro-2H-2-benzazepin-2-yl)quinolin-4-yl]ethane-1,2-diamine]
35 | 7.62 µM | NCCNc1cc(N2CCCc3ccc(C(=O)O)cc3C2)nc2ccccc12 [Example 118-25, 2-{4-[(2-Aminoethyl)amino]quinolin-2-yl}-2,3,4,5-tetrahydro-1H-2-benzazepine-8-carboxylic acid]
36 | 7.75 µM | Clc1cc(N2CCCc3ccccc3C2)nc2ccccc12 [Example 118-26, 2-(4-Chloroquinolin-2-yl)-2,3,4,5-tetrahydro-1H-2-benzazepine]
37 | 6.66 µM | NCCNc1cc(N2CCCc3ccccc3C2)nc2cccc(Cl)c12 [Example 119, N-[5-Chloro-2-(1,3,4,5-tetrahydro-2H-2-benzazepin-2-yl)quinolin-4-yl]ethane-1,2-diamine]
38 | 2.19 µM | CS(=O)(=O)c1ccc2c(c1)CCCN(c1cc(NCCN)c3ccccc3n1)C2 [Example 120-1, N-{2-[7-(Methylsulfonyl)-1,3,4,5-tetrahydro-2H-2-benzazepin-2-yl]quinolin-4-yl}ethane-1,2-diamine]
